{
  "source": "patent US20020054872A1",
  "about": "“Peptides for the treatment of systemic lupus erythematosus and methods of treating systemic lupus erythematosus” (priority 1997, published 2002)",
  "key": {"[1]": {"system": "C72 murine anti-DNA antibody", "assay": "Direct binding ELISA of C72 to laminin peptides", "design": "species or system mouse", "conditions": "for binding of C72 murine anti-DNA antibody to laminin peptides: FIG. 1, C72 conditioned medium in various dilutions; for C72 Binding: direct binding ELISA test after one (1) hour", "procedure": "The C72 murine anti-DNA antibody has been derived from (NZB×NZW)F1 lupus mice by the hybridoma technique as described in Eilat D. et al J. Immunol. […] The monoclonal anti-DNA antibodies DIL6 and B3 were derived from lupus patients by hybridoma technique as described in Ehrenstein M. R. et al J. Clin. Invest. (1994) 93 1787-1799 and Ehrenstein M. R. et al Kidney Inter. (1995) 48 705-711.\nWells were coated with 10 μg/ml of the peptides, blocked with 1% BSA (bovine serum albumin) in PBS (pH 7,4), reacted with appropriately diluted serum or urine samples or monoclonal antibodies, incubated with anti-human or anti-mouse immunoglobulin enzyme conjugated to alkaline phosphatase and detected by addition of substrate (Sigma 100 Phosphatase Substrate Tablets) and color development using an Organon Teknika Microwell System spectrometer at wavelength of 405 nm.\nThe interaction of the C72 murine anti-DNA antibody with laminin peptides was analyzed by ELISA as described above. The C72 conditioned medium was diluted in PBS in various dilutions.\nThe peptides of the present invention were tested for their ability to bind directly with C72 murine anti-DNA antibodies and B3 human anti-DNA antibodies according to the method described hereinabove."}, "[2]": {"system": "C72 murine anti-DNA antibody", "assay": "Competitive inhibition of C72 binding to 5200", "design": "species or system mouse", "conditions": "FIG. 2, incubation with inhibiting agent", "procedure": "The binding of C72 to 5200 was tested before and after incubation with 5200, R38, R18, Heparin, DNA and DNase. […] The percent inhibition is the percent reduction of the O.D. after incubation with the inhibiting agent."}, "[3]": {"system": "MRL/lpr/lpr mice", "assay": "Effect on clinical course of murine SLE (survival, renal histology)", "assay_type": "in vivo, mouse", "conditions": "50 μg i.p. three times a week, from 6 weeks old, FIG. 9", "procedure": "To test whether R38 peptides can affect the course of SLE we have tested their effect on MRL/lpr/lpr mice disease. 60 μg of 5200 (R38′ alone or in peptide combinations, 30 μg of each) in 0.1 ml PBS, was injected i.p. to 6 week old female MLR/lpr/lpr mice once a week for 16 week and the mice were evaluated for survival (FIG. 8), and for renal histology. 50 μg of 5100 (R38) or 5300 (human R38) in 0.1 ml PBS, was injected i.p. to 6 week old MRL/lpr/lpr mice three times a week and the mice were evaluated for survival (FIG. 9), and for renal histology. Control mice received 0.1 ml phosphate buffer solution. Each test and control group contained 12-15 mice.\nThe survival of MRL/lpr/lpr mice treated with […], 5200 or 5300 was compared to that of PBS treated mice. […] In FIGS. 8 and 9 the time in days shown on the x axis relates to the age of the mice."}, "[4]": {"system": "C72 antibody", "assay": "Immunoabsorption of C72 on R38 column, anti-R38 ELISA", "assay_type": "binding, mouse", "procedure": "(§1) The R38 peptide was dissolved in the coupling buffer (0.2M NaHCO3, 0.5M NaCl, pH 8.3) in a concentration of 1 mg/ml in 5 ml coupling buffer. A 5 ml N-hydroxysuccinimide (NHS)-activated Sepharose™ High Performance Column (Pharmacia 17-0717-01) is used. The isopropanol in the column was washed out from the column with 30 ml of cold (4° C.) 1 mM HCl and 5 ml of the peptide solution was then injected onto the column with a syringe (2.5 ml/minute). The column was sealed and stood for 30 minutes at room temperature. The column was then washed with 30 ml Buffer A (0.5 M ethanolamine, 0.5 M NaCl, pH 8.3) and 30 ml Buffer B (0.5 M acetate, 0.5 M NaCl, pH 4) consecutively three times, and then with neutral pH buffer (0.05 M Na2HP04 and 0.1% NaN3).\n(§2) The column was washed with 15 ml PBS (phosphate buffered saline), followed by 15 ml elution buffer (0.1 M glycine HCl) and then 50 ml PBS. The C72 antibody or the patients' plasma samples were filtered through a 0.45 microm filter. The samples were applied onto the column by a fitted syringe at a rate of 2.5 ml/min. The column was then washed with 5 ml PBS and the flow-through was applied to the column again. The binding of the samples (original and flow-through) to R38 was tested by the anti-R38 ELISA test.\n(§3) In the instant example, the mouse C72 and the SLE patients' plasma were applied to the R38 column. Their anti-R38 binding was evaluated by ELISA in the original samples and in the flow-through of the column."}, "[5]": {"system": "anti-R38 antibodies in patients' plasma", "assay": "Immunoabsorption of plasma on R38 column, anti-R38 ELISA", "assay_type": "binding, human", "procedure": "as §1, §2, §3"}, "[6]": {"target": "C72 murine anti-DNA antibody", "assay": "competitive inhibition ELISA: C72 preincubated with peptide, binding to coated 5100 (R38)"}},
  "note": "Residues, ends and D or L forms follow the SMILES beside them.",
  "data": [
    {"molecule": "KATPMLKMRTSFHGCIK [Peptide R37, residues 2615-2631 of mouse laminin α chain]", "values": [
      {"measurement": "binding of C72 murine anti-DNA antibody to laminin peptides", "setting": "[1]", "value": "binding"}
    ]},
    {"molecule": "CC[C@H](C)[C@H](NC(=O)[C@H](CC(N)=O)NC(=O)[C@H](CC(C)C)NC(=O)[C@H](CC(=O)O)NC(=O)[C@H](CC(C)C)NC(=O)[C@H](C)NC(=O)[C@@H](NC(=O)[C@H](C)NC(=O)[C@H](Cc1ccc(O)cc1)NC(=O)CNC(=O)[C@H](CCC(=O)O)NC(=O)[C@H](C)N)C(C)C)C(=O)N[C@H](C(=O)N[C@@H](CC(C)C)C(=O)N[C@@H](CCC(=O)O)C(=O)N[C@@H](Cc1ccccc1)C(=O)N[C@@H](C)C(=O)N[C@H](C(=O)N[C@H](C(=O)N[C@@H](CO)C(=O)N[C@@H](C)C(=O)O)[C@@H](C)O)[C@@H](C)O)[C@@H](C)O", "note": "[Peptide 5104] (H-AEGYAVALDLNITLEFATTSA-OH; N-terminus and C-terminus assumed)", "values": [
      {"measurement": "C72 Binding", "setting": "[1]", "value": 0.08, "unit": "O.D."}
    ]},
    {"molecule": "DNase [reference compound]", "values": [
      {"measurement": "inhibition of the binding of C72 to 5200", "setting": "[2]", "value": "not by a control peptide or treatment with DNase"}
    ]},
    {"molecule": "KQNCLSSRASFRGCVRNLRLSR [Peptide R30, residues 3011-3032 of mouse laminin α chain]", "values": [
      {"measurement": "binding of C72 murine anti-DNA antibody to laminin peptides", "setting": "[1]", "value": "binding"}
    ]},
    {"molecule": "heparin [reference compound]", "values": [
      {"measurement": "inhibition of the binding of C72 to 5200", "setting": "[2]", "value": "inhibition"}
    ]},
    {"molecule": "CC[C@H](C)[C@H](NC(=O)[C@H](CC(N)=O)NC(=O)[C@H](CC(C)C)NC(=O)[C@H](CC(=O)O)NC(=O)[C@H](CC(C)C)NC(=O)[C@H](CCCNC(=N)N)NC(=O)[C@@H](NC(=O)[C@H](CCCCN)NC(=O)[C@H](Cc1ccc(O)cc1)NC(=O)CNC(=O)[C@H](CCC(=O)O)NC(=O)[C@@H](N)CCCCN)C(C)C)C(=O)N[C@H](C(=O)N[C@@H](CC(C)C)C(=O)N[C@@H](CCC(=O)O)C(=O)N[C@@H](Cc1ccccc1)C(=O)N[C@@H](CCCNC(=N)N)C(=O)N[C@H](C(=O)N[C@H](C(=O)N[C@@H](CO)C(=O)N[C@@H](CCCCN)C(=O)O)[C@@H](C)O)[C@@H](C)O)[C@@H](C)O", "note": "[Peptide 5100] (H-KEGYKVRLDLNITLEFRTTSK-OH; N-terminus and C-terminus assumed)", "values": [
      {"measurement": "survival", "setting": "[3]", "value": "significantly higher than that of control mice"},
      {"measurement": "inhibition of the binding of C72 to 5200", "setting": "[2]", "value": "inhibition"},
      {"measurement": "Binding to R38 (O.D.)", "setting": "[4]; C72, after immunoabsorption on R38 column", "value": 0.02, "unit": "O.D."},
      {"measurement": "Binding to R38 (O.D.)", "setting": "[4]; C72, original sample", "value": 1.96, "unit": "O.D."},
      {"measurement": "anti-R38 activity removed by affinity absorption on the column", "setting": "[4]; mouse monoclonal C72", "value": 99, "unit": "%"},
      {"measurement": "Binding to R38 (O.D.)", "setting": "[5]; Healthy donor's plasma, after immunoabsorption", "value": 0.06, "unit": "O.D."},
      {"measurement": "Binding to R38 (O.D.)", "setting": "[5]; Healthy donor's plasma, original sample", "value": 0.26, "unit": "O.D."},
      {"measurement": "Binding to R38 (O.D.)", "setting": "[5]; SLE patient 1 plasma, after immunoabsorption", "value": 0.6, "unit": "O.D."},
      {"measurement": "Binding to R38 (O.D.)", "setting": "[5]; SLE patient 1 plasma, original sample", "value": 1.5, "unit": "O.D."},
      {"measurement": "Binding to R38 (O.D.)", "setting": "[5]; SLE patient 2 plasma, after immunoabsorption", "value": 1.6, "unit": "O.D."},
      {"measurement": "Binding to R38 (O.D.)", "setting": "[5]; SLE patient 2 plasma, original sample", "value": 2.3, "unit": "O.D."},
      {"measurement": "antibodies removed by affinity absorption on the column", "setting": "[5]; human SLE patients' plasma", "value": "30%-60%"}
    ]},
    {"molecule": "DNA [reference compound]", "values": [
      {"measurement": "inhibition of the binding of C72 to 5200", "setting": "[2]", "value": "inhibition"}
    ]},
    {"molecule": "CC[C@H](C)[C@H](NC(=O)[C@H](CC(N)=O)NC(=O)[C@H](CC(C)C)NC(=O)[C@H](CC(=O)O)NC(=O)[C@H](CC(C)C)NC(=O)[C@H](CCCNC(=N)N)NC(=O)[C@@H](NC(=O)[C@H](CCCCN)NC(=O)[C@H](Cc1ccc(O)cc1)NC(=O)CNC(=O)[C@H](CCC(=O)O)NC(=O)[C@@H](N)CCCCN)C(C)C)C(=O)N[C@H](C(=O)N[C@@H](CC(C)C)C(=O)N[C@@H](C)C(=O)N[C@@H](Cc1ccccc1)C(=O)N[C@@H](CCCNC(=N)N)C(=O)N[C@H](C(=O)N[C@H](C(=O)N[C@@H](CO)C(=O)N[C@@H](CCCCN)C(=O)O)[C@@H](C)O)[C@@H](C)O)[C@@H](C)O", "note": "[Peptide 5110] (H-KEGYKVRLDLNITLAFRTTSK-OH; N-terminus and C-terminus assumed)", "values": [
      {"measurement": "C72 Binding", "setting": "[1]", "value": 2.5, "unit": "O.D."}
    ]},
    {"molecule": "KEGYKVRLDLNTTLEFRTTSK", "note": "[5200 peptide, mouse R38 analog]", "values": [
      {"measurement": "IC50", "setting": "[6]", "value": 10, "unit": "µg/mL"}
    ]},
    {"molecule": "KEGYKVRLDLNITLAFRTTSK", "note": "[5110 peptide, Ala subst. of 5100 a.a. 15]", "values": [
      {"measurement": "IC50", "setting": "[6]", "value": 0.7, "unit": "µg/mL"}
    ]},
    {"molecule": "VRLDLNITLEFR", "note": "[5102 peptide, Res. 6-17 of 5100]", "values": [
      {"measurement": "IC50", "setting": "[6]", "value": 30, "unit": "µg/mL"}
    ]},
    {"molecule": "KEGYKVRLDLNITLEFRTTSK", "note": "[R38 peptide (5100), mouse laminin alpha chain residues 2890-2910]", "values": [
      {"measurement": "IC50", "setting": "[6]", "value": 10, "unit": "µg/mL"}
    ]},
    {"molecule": "KAGYKVRLALNITLAFRTTSK", "note": "[5108 peptide, Ala subst. of 5100 at all negative a.a.]", "values": [
      {"measurement": "IC50", "setting": "[6]", "value": 2, "unit": "µg/mL"}
    ]},
    {"molecule": "KEGYKVRLALNITLEFRTTSK", "note": "[5109 peptide, Ala subst. of 5100 a.a. 9]", "values": [
      {"measurement": "IC50", "setting": "[6]", "value": 0.7, "unit": "µg/mL"}
    ]},
    {"molecule": "KEGYKVRLDLNITLEF", "note": "[5101 peptide, Res. 1-16 of 5100]", "values": [
      {"measurement": "IC50", "setting": "[6]", "value": 5, "unit": "µg/mL"}
    ]},
    {"molecule": "KEGYKVRLDLNITLEFETTSK", "note": "[5107 peptide, charge subst. to neg. at 5100 a.a. 17]", "values": [
      {"measurement": "IC50", "setting": "[6]", "value": 85, "unit": "µg/mL"}
    ]},
    {"molecule": "KEGYKVELDLNITLEFRTTSK", "note": "[5106 peptide, charge subst. to neg. at 5100 a.a. 7]", "values": [
      {"measurement": "IC50", "setting": "[6]", "value": 2.5, "unit": "µg/mL"}
    ]}
  ]
}
